Source: patent US7723527B2 (Janssen Pharmaceutica NV, priority 2003, dated 2010)

The compounds below were run against T1, human histamine H4 receptor (Homo sapiens, UniProt Q9H3N8) (assay: Binding assay on recombinant human histamine H4 receptor (3H-histamine displacement)). Details: competition binding with 3H-histamine; membranes of SK-N-MC or COS7 cells expressing human H4 receptor; Cheng-Prusoff, KD 5 nM, ligand 5 nM.
T1 construct: expressed in transfected cells; host or cells: SK-N-MC cells or COS7 cells, transiently transfected; cell membranes used
Protocol: SK—N-MC cells or COS7 cells were transiently transfected with pH4R and grown in 150 cm^2 tissue culture dishes. Cells were washed with saline solution, scraped with a cell scraper and collected by centrifugation (1000 rpm, 5 min). Cell membranes were prepared by homogenization of the cell pellet in 20 mM Tris-HCl with a polytron tissue homogenizer for 10 s at high speed. Homogenate was centrifuged at 1000 rpm for 5 min at 4° C. The supernatant was then collected and centrifuged at 20,000×g for 25 min at 4° C. The final pellet was resuspended in 50 mM Tris-HCl. Cell membranes were incubated with ^3H-histamine (5-70 nM) in the presence or absence of excess histamine (10,000 nM). Incubation occurred at room temperature for 45 min. Membranes were harvested by rapid filtration over Whatman GF/C filters and washed 4 times with ice-cold 50 mM Tris HCl. Filters were then dried, mixed with scintillant and counted for radioactivity. SK—N-MC or COS7 cells expressing human histamine H4 receptor were used to measure the affinity of binding of other compounds and their ability to displace ^3H-ligand binding by incubating the above-described reaction in the presence of various concentrations of inhibitor or compound to be tested.

T1 sequence (Q9H3N8 whole entry): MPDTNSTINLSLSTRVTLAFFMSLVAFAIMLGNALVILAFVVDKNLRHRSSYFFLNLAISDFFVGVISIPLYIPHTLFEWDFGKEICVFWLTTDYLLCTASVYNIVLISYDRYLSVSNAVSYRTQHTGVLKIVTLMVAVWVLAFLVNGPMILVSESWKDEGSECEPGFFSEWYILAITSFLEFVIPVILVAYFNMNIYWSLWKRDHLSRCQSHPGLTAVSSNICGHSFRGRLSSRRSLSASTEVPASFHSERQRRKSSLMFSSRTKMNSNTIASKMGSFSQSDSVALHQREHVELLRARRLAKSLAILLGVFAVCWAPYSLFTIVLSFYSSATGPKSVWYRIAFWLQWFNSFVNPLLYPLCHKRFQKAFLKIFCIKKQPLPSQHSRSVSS

Row | SMILES | Ki
1 | Cc1cc(C)c2nc(-c3ccc(OCCCN4CCCN(C)CC4)cc3Cl)[nH]c2c1 [Example 22, 2-{2-Chloro-4-[3-(4-methyl-[1,4]diazepan-1-yl)-propoxy]-phenyl}-4,6-dimethyl-1H-benzoimidazole] | 1 nM
2 | Cc1cc(-c2nc3c(C)c(C)ccc3[nH]2)ccc1OCCCN1CCN(C)CC1 [Example 6, 4,5-Dimethyl-2-{3-methyl-4-[3-(4-methyl-piperazin-1-yl)-propoxy]-phenyl}-1H-benzoimidazole] | 61 nM
3 | Cc1ccc2[nH]c(-c3ccnc(OCCCCC4CCN(C)CC4)c3)nc2c1C [Example 149, 4,5-Dimethyl-2-{2-[4-(1-methyl-piperidin-4-yl)-butoxy]-pyridin-4-yl}-1H-benzoimidazole] | 4 nM
4 | Cc1ccc2[nH]c(-c3ccc(OCCCN4CCN(C)CC4)c(F)c3)nc2c1 [Example 25, 2-{3-Fluoro-4-[3-(4-methyl-piperazin-1-yl)-propoxy]-phenyl}-5-methyl-1H-benzoimidazole] | 119 nM
5 | Cc1cnc(OCCCCC2CCN(C)CC2)cc1-c1nc2c(C)c(F)ccc2[nH]1 [Example 165, 5-Fluoro-4-methyl-2-{5-methyl-2-[4-(1-methyl-piperidin-4-yl)-butoxy]-pyridin-4-yl}-1H-benzoimidazole] | 3 nM
6 | Cc1c(OCCCCC2CCN(C)CC2)cccc1-c1nc2c(C)c(F)ccc2[nH]1 [Example 101, 6-Fluoro-7-methyl-2-{2-methyl-3-[4-(1-methyl-piperidin-4-yl)-butoxy]-phenyl}-1H-benzoimidazole] | 55 nM
7 | Cc1cc(Cl)cc2[nH]c(-c3ccnc(OCCCCN4CCN(C)CC4)c3)nc12 [Example 142, 6-Chloro-4-methyl-2-{2-[4-(4-methyl-piperazin-1-yl)-butoxy]-pyridin-4-yl}-1H-benzoimidazole] | 73 nM
8 | COc1cc(OCCCC2CCN(C)CC2)ncc1-c1nc2c(C)c(F)ccc2[nH]1 [Example 120, 5-Fluoro-2-{4-methoxy-6-[3-(1-methyl-piperidin-4-yl)-propoxy]-pyridin-3-yl}-4-methyl-1H-benzoimidazole] | 94 nM
9 | Cc1cc(C)c2nc(-c3cccc(OCCCCC4CCN(C)CC4)c3C)[nH]c2c1 [Example 99, 5,7-Dimethyl-2-{2-methyl-3-[4-(1-methyl-piperidin-4-yl)-butoxy]-phenyl}-1H-benzoimidazole] | 38 nM
10 | Cc1cccc2[nH]c(-c3ccc(OCCN(C)C4CCN(C)CC4)cc3Cl)nc12 [Example 91, {2-[3-Chloro-4-(4-methyl-1H-benzoimidazol-2-yl)-phenoxy]-ethyl}-methyl-(1-methyl-piperidin-4-yl)-amine] | 633 nM
11 | CN1CCC(CCCCOc2cc(-c3nc4cc(C(C)(C)C)ccc4[nH]3)ccn2)CC1 [Example 135, 5-tert-Butyl-2-{2-[4-(1-methyl-piperidin-4-yl)-butoxy]-pyridin-4-yl}-1H-benzoimidazole] | 47 nM
12 | CN1CCC(CCCOc2ccc(-c3nc4cc(C(C)(C)C)ccc4[nH]3)cc2)CC1 [Example 63, 5-tert-Butyl-2-{4-[3-(1-methyl-piperidin-4-yl)-propoxy]-phenyl}-1H-benzoimidazole] | 57 nM
13 | Cc1c(F)ccc2[nH]c(-c3cc(OCCCCC4CCN(C)CC4)ncc3Br)nc12 [Example 129, 2-{5-Bromo-2-[4-(1-methyl-piperidin-4-yl)-butoxy]-pyridin-4-yl}-5-fluoro-4-methyl-1H-benzoimidazole] | 5 nM
14 | Cc1cc(C)c2nc(-c3ccnc(OCCCCC4CCNCC4)c3)[nH]c2c1 [Example 153, 4,6-Dimethyl-2-[2-(4-piperidin-4-yl-butoxy)-pyridin-4-yl]-1H-benzoimidazole] | 179 nM
15 | Cc1cc(C)c2nc(-c3ccc(OCCCC4=CCN(C)CC4)nc3)[nH]c2c1 [Example 125, 4,6-Dimethyl-2-{6-[3-(1-methyl-1,2,3,6-tetrahydro-pyridin-4-yl)-propoxy]-pyridin-3-yl}-1H-benzoimidazole] | 77 nM
16 | Cc1cc(C)c2nc(-c3ccnc(OCCCCC4CCN(C)CC4)c3C)[nH]c2c1 [Example 155, 4,6-Dimethyl-2-{3-methyl-2-[4-(1-methyl-piperidin-4-yl)-butoxy]-pyridin-4-yl}-1H-benzoimidazole] | 13 nM
17 | Cc1ccc2[nH]c(-c3cc(OCCCCC4CCN(C)CC4)ncc3Cl)nc2c1C [Example 137, 2-{5-Chloro-2-[4-(1-methyl-piperidin-4-yl)-butoxy]-pyridin-4-yl}-4,5-dimethyl-1H-benzoimidazole] | 3 nM
18 | Cc1cc(OCCCC2CCN(C)CC2)ncc1-c1nc2c(Cl)cccc2[nH]1 [Example 114, 4-Chloro-2-{4-methyl-6-[3-(1-methyl-piperidin-4-yl)-propoxy]-pyridin-3-yl}-1H-benzoimidazole] | 11 nM
19 | Cc1cc2[nH]c(-c3ccc(OCCCC4CCN(C)CC4)cc3)nc2cc1Cl [Example 60, 5-Chloro-6-methyl-2-{4-[3-(1-methyl-piperidin-4-yl)-propoxy]-phenyl}-1H-benzoimidazole] | 39 nM
20 | CN1CCCN(CCCCOc2cccc(-c3nc4cc(C(C)(C)C)ccc4[nH]3)c2)CC1 [Example 8, 5-tert-Butyl-2-{3-[4-(4-methyl-[1,4]diazepan-1-yl)-butoxy]-phenyl}-1H-benzoimidazole] | 138 nM
21 | COc1cc(-c2nc3cc(C(F)(F)F)ccc3[nH]2)ccc1OCCCN1CCN(C)CC1 [Example 33, 2-{3-Methoxy-4-[3-(4-methyl-piperazin-1-yl)-propoxy]-phenyl}-5-trifluoromethyl-1H-benzoimidazole] | 81 nM
22 | Cc1cc(C)c2nc(-c3ccc(OCCCN4CCN(C)CC4)cc3C)[nH]c2c1 [Example 72, 4,6-Dimethyl-2-{2-methyl-4-[3-(4-methyl-piperazin-1-yl)-propoxy]-phenyl}-1H-benzoimidazole] | 5 nM
23 | Cc1cc(Cl)cc2[nH]c(-c3ccnc(OCCCCC4CCN(C)CC4)c3)nc12 [Example 150, 6-Chloro-4-methyl-2-{2-[4-(1-methyl-piperidin-4-yl)-butoxy]-pyridin-4-yl}-1H-benzoimidazole] | 19 nM
24 | Cc1cc(C)c2nc(-c3ccc(OCCCC4CCN(C)CC4)cc3Cl)[nH]c2c1 [Example 16, 2-{2-Chloro-4-[3-(1-methyl-piperidin-4-yl)-propoxy]-phenyl}-4,6-dimethyl-1H-benzoimidazole] | 16 nM
25 | Cc1cc(Cl)cc2[nH]c(-c3cc(OCCCCC4CCN(C)CC4)ncc3Br)nc12 [Example 130, 2-{5-Bromo-2-[4-(1-methyl-piperidin-4-yl)-butoxy]-pyridin-4-yl}-6-chloro-4-methyl-1H-benzoimidazole] | 5 nM
26 | CN1CCN(CCCOc2ccc(-c3nc4cc(Cl)c(Cl)cc4[nH]3)cc2Cl)CC1 [Example 40, 5,6-Dichloro-2-{3-chloro-4-[3-(4-methyl-piperazin-1-yl)-propoxy]-phenyl}-1H-benzoimidazole] | 74 nM
27 | CN1CCC(CCCCOc2nccc(-c3nc4c(Cl)cccc4[nH]3)c2Cl)CC1 [Example 160, 4-Chloro-2-{3-chloro-2-[4-(1-methyl-piperidin-4-yl)-butoxy]-pyridin-4-yl}-1H-benzoimidazole] | 53 nM
28 | Cc1c(F)ccc2[nH]c(-c3cnc(OCCCC4CCN(C)CC4)cc3Cl)nc12 [Example 115, 2-{4-Chloro-6-[3-(1-methyl-piperidin-4-yl)-propoxy]-pyridin-3-yl}-5-fluoro-4-methyl-1H-benzoimidazole] | 4 nM
